One molecule from ChEMBL document CHEMBL1909046, “DrugMatrix in vitro pharmacology data” can be followed below.

SMILES strings stand for the structures.

The test has as its target Glycine receptor (Rattus norvegicus, UniProt P07727+P20781+P22771+P24524). Type of test: cell membranes, Wistar, Spinal cord, Membrane.

Chain of Glycine receptor (P22771 whole entry): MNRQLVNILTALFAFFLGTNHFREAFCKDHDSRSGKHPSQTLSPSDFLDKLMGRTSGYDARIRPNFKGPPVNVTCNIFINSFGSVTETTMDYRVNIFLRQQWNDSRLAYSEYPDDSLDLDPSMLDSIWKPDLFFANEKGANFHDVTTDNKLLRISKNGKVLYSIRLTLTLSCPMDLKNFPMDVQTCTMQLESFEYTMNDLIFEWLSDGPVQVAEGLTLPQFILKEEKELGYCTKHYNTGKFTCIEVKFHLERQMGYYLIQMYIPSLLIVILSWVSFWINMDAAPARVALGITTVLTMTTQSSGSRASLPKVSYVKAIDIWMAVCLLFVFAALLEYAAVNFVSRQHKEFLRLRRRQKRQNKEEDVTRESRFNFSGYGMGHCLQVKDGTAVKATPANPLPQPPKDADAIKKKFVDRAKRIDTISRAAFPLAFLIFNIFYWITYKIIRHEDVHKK
Chain of Glycine receptor (P24524 whole entry): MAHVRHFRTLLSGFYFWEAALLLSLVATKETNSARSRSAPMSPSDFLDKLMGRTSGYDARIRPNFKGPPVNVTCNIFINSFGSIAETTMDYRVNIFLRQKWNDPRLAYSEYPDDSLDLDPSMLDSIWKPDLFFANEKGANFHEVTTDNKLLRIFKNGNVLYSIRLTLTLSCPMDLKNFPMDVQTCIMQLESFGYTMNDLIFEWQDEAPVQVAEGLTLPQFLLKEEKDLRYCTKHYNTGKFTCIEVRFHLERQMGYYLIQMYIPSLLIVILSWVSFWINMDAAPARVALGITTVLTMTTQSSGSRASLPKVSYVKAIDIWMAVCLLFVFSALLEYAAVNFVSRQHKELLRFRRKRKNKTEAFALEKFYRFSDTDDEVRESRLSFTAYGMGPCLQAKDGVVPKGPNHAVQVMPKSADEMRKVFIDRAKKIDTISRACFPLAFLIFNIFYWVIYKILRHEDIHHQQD
Chain of Glycine receptor (P07727 whole entry): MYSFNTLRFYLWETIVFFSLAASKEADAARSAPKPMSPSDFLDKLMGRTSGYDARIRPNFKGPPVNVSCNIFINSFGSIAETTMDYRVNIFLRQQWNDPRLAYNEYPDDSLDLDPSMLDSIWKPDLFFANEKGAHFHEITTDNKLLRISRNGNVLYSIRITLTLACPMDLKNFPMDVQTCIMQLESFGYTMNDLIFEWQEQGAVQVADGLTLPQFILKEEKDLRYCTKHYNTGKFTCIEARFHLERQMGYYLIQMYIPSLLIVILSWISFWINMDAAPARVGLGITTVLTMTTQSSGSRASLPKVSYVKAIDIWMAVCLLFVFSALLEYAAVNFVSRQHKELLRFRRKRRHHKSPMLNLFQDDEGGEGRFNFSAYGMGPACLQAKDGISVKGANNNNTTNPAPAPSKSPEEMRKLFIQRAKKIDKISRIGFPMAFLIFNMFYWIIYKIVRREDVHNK
Chain of Glycine receptor (P20781 whole entry): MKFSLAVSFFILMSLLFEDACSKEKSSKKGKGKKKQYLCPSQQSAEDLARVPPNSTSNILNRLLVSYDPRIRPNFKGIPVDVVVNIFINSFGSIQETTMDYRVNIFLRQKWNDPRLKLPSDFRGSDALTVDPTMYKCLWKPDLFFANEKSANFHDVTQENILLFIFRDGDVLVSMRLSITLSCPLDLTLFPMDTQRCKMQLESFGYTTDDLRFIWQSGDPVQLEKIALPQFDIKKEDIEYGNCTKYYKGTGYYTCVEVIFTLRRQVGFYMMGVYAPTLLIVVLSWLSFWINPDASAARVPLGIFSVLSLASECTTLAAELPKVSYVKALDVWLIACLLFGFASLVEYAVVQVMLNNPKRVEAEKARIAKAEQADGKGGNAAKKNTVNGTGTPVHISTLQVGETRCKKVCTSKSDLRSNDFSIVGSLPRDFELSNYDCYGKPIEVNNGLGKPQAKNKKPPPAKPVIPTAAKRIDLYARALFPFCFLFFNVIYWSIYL

On to `CC[C@H](C)[C@H]1O[C@]2(C=C[C@@H]1C)C[C@@H]1C[C@@H](C/C=C(\C)[C@@H](O[C@H]3C[C@H](OC)[C@@H](O[C@H]4C[C@H](OC)[C@@H](O)[C@H](C)O4)[C@H](C)O3)[C@@H](C)/C=C/C=C3\CO[C@@H]4[C@H](O)C(C)=C[C@@H](C(=O)O1)[C@]34O)O2.CO[C@H]1C[C@H](O[C@H]2[C@H](C)O[C@@H](O[C@@H]3/C(C)=C/C[C@@H]4C[C@@H](C[C@]5(C=C[C@H](C)[C@@H](C(C)C)O5)O4)OC(=O)[C@@H]4C=C(C)[C@@H](O)[C@H]5OC/C(=C\C=C\[C@@H]3C)[C@]54O)C[C@@H]2OC)O[C@@H](C)[C@@H]1O` [ABAMECTIN], for which the IC50 (as a rule, the concentration that gives 50% inhibition) was 132 nM and the Ki (as a rule, a dissociation constant, usually derived from enzyme kinetics or from competition with a known ligand) was 75 nM.
